In data set [1] the test system is Mus musculus. In words: Anticonvulsant activity in Kunming mouse assessed as reduction in ScPTZ-induced seizure at 30 mg/kg, ip measured after 30 mins. In kind it is functional, organism-based.
The nature of data set [2]: Neurotoxicity in Kunming mouse at 300 mg/kg, ip measured after 30 mins by rotarod test. The settings on record: in vivo, 0.5 h. In kind it is toxicity, organism-based.
The subject of data set [3] is Mus musculus. Briefly: Anticonvulsant activity in Kunming mouse assessed as reduction in ScPTZ-induced seizure at 300 mg/kg, ip measured after 30 mins. In kind it is functional, organism-based.
Data set [4] can be described thus: Neurotoxicity in Kunming mouse at 100 mg/kg, ip measured after 30 mins by rotarod test. In kind it is toxicity, organism-based. Conditions: in vivo, 0.5 h. (Falling from the rotarod earlier than controls is read as motor impairment.)
Data set [5] concerns Mus musculus. In words: Anticonvulsant activity in Kunming mouse assessed as reduction in MES-induced seizure at 30 mg/kg, ip measured after 30 mins. In kind it is functional, organism-based.
The subject of data set [6] is Mus musculus. Briefly: Anticonvulsant activity in Kunming mouse assessed as reduction in MES-induced seizure at 300 mg/kg, ip measured after 30 mins. In kind it is functional, organism-based.
A short description of data set [7]: Displacement of [3H]flunitrazepam from GABA-A receptor benzodiazepine site in mouse cerebellum synaptosomal membrane. In kind it is subcellular, Synaptosome. In general terms: Displacement assays read how much labelled ligand stays bound in the presence of the test substance.
For data set [8], the system named is Rattus norvegicus. Briefly: Effect on GABA level in Wistar rat brain assessed as increase in GABA level at 30 mg/kg, ip measured after 2 hrs. In kind it is functional, organism-based.
Data set [9] deals with Mus musculus. Briefly: Anticonvulsant activity in Kunming mouse assessed as reduction in MES-induced seizure at 100 mg/kg, ip measured after 30 mins. In kind it is functional, organism-based.
For data set [10], the system named is Rattus norvegicus. Briefly: Effect on GABA level in Wistar rat brain assessed as increase in GABA level at 30 mg/kg, ip measured after 7 days. The settings on record: time 7.0 day. In kind it is functional, organism-based.
The nature of data set [11]: Protection index, ratio of TD50 for neurotoxicity in ip dosed Kunming mouse to ED50 for anticonvulsant activity in ip dosed ScPTZ-induced Kunming mouse. In kind it is toxicity, organism-based. Conditions: in vivo, read-out: TI.
The test system of data set [12] is Rattus norvegicus. Briefly: Anxiolytic activity in Wistar rat assessed as increase in time spent in open sided arms at 1 mg/kg, ip measured for 5 mins in presence of GABAA receptor antagonist by elevated plus maze test. In kind it is functional, organism-based.
Data set [13] has as its system Mus musculus. Briefly: Anticonvulsant activity in ip dosed Kunming mouse assessed as reduction in ScPTZ-induced seizure measured after 30 mins. The settings on record: 0.5 h. In kind it is functional.
Data set [14] deals with Mus musculus. Briefly: Anticonvulsant activity in Kunming mouse assessed as reduction in ScPTZ-induced seizure at 100 mg/kg, ip measured after 30 mins. In kind it is functional, organism-based.
Data set [15] concerns Rattus norvegicus. In words: Anxiolytic activity in Wistar rat assessed as increase in time spent in open sided arms at 1 mg/kg, ip measured for 5 mins by elevated plus maze test. In kind it is functional, organism-based.
The nature of data set [16]: Neurotoxicity in ip dosed Kunming mouse measured after 30 mins by rotarod test. In kind it is toxicity, organism-based. The settings on record: in vivo.
Data set [17] is described as follows: Protection index, ratio of TD50 for neurotoxicity in ip dosed Kunming mouse to ED50 for anticonvulsant activity in ip dosed MES-induced Kunming mouse. The settings on record: in vivo, read-out: TI. In kind it is toxicity, organism-based.
Data set [18] concerns Mus musculus. Briefly: Anticonvulsant activity in ip dosed Kunming mouse assessed as reduction in MES-induced seizure measured after 30 mins. In kind it is functional. The settings on record: 0.5 h.
The test system of data set [19] is Mus musculus. In words: Anticonvulsant activity in Kunming mouse assessed as reduction in MES-induced seizure at 2 mg/kg, ip measured after 30 mins. In kind it is functional, organism-based.
Data set [20] can be described thus: Neurotoxicity in Kunming mouse at 30 mg/kg, ip measured after 30 mins by rotarod test. In kind it is toxicity, organism-based. The settings on record: in vivo, 0.5 h.

The source made the active and inactive calls. No cut-off for these calls is given here.

For the compound `CCCCCCCSc1nnc(COc2ccc(-n3cnnc3)cc2)o1`, the result with Mus musculus [1] and with Mus musculus [5] was inactive. The Activity result in data set [2] and in data set [4] was “Non-Toxic” throughout. Besides, the outcome with Mus musculus [3] and with Mus musculus [6] was Active.
The IC50 is the concentration at which inhibition is half-maximal. Lower therefore signals inhibition by little substance. By ED50 is commonly meant the dose that gives a 50% effect, or the effect in half of the subjects. Broadly, the TD50 is the dose at which the toxic effect under study appears in half of the subjects. A high value points to harm only at a large dose. In the case of `CCCCCSc1nnc(COc2ccc3c(c2)CCC(=O)N3)o1`, the outcome in the data set on Mus musculus [1], with Rattus norvegicus [8], in the data set with Mus musculus [9], with Rattus norvegicus [10], in the data set on Mus musculus [14] and in the data set with Rattus norvegicus [15] was Active. For the same compound, the result with Mus musculus [5] was Active. Moreover, the Activity result in [2] and in data set [4] was “Non-Toxic” in each case. Also, the IC50 in data set [7] amounted to 110 nM. Also, the selectivity ratio was 56.4 in [11] and 64.6 in [17]. Besides, the outcome in the data set on Rattus norvegicus [12] was inactive. Further, the ED50 with Mus musculus [13] was determined as 10.2 mg/kg; in the data set on Mus musculus [18], 8.9 mg/kg. Besides, in data set [16], the TD50 at 0.5 h was 575 mg/kg.
Turning to `CN1C(=O)CN=C(c2ccccc2)c2cc(Cl)ccc21` [DIAZEPAM], in data set [7], the 50% inhibitory concentration (IC50) was found to be 42 nM. Also, the result in the data set with Rattus norvegicus [15] and in the data set on Mus musculus [19] was Active.
Take `O=C1CCc2cc(OCc3nnc(SCc4ccc(C(F)(F)F)cc4)o3)ccc2N1`: the Activity entry in [2] and in data set [4] was “Non-Toxic” in each case. In data set [7], this compound showed an IC50 of 5280 nM. Also, the outcome in the data set on Mus musculus [9] and in the data set on Mus musculus [14] was Active. Also, the selectivity ratio stood at 13.6 in [11] and 16.2 in data set [17]. Further, the ED50 worked out at 27.6 mg/kg in the data set on Mus musculus [13] and 23.1 mg/kg with Mus musculus [18]. Besides, the TD50 at 0.5 h in data set [16] was determined as 376 mg/kg.
In the case of `CCCCCSc1nnc(COc2ccc(-n3cnnc3)cc2)o1`, the Activity entry in data set [2] and in data set [4] was “Non-Toxic” in each case. Moreover, the half-maximal inhibitory concentration (IC50) in [7] was determined as 3430 nM. Besides, the outcome with Mus musculus [9], in the data set with Mus musculus [14] and in the data set on Mus musculus [5] was Active. Besides, the results for the selectivity ratio in [11] and in data set [17] were 15.1 and 22.5, respectively. The results for the median effective dose (ED50) in the data set with Mus musculus [13] and with Mus musculus [18] were 27.9 mg/kg and 18.7 mg/kg, respectively. Besides, in data set [16], the TD50 at 0.5 h is 421 mg/kg.
For `CCCCCCSc1nnc(COc2ccc(NC(C)=O)cc2)o1`, the Activity result in data set [2] and in [4] was “Non-Toxic” throughout. Further, the IC50 in [7] is 4120 nM. Besides, the result with Mus musculus [9] and with Mus musculus [14] was Active. For the same compound, the selectivity ratio in [11] stood at 15.6; in data set [17], 20.1. For the same compound, the median effective dose (ED50) in the data set with Mus musculus [13] turned out to be 26.8 mg/kg; in the data set on Mus musculus [18], 20.9 mg/kg. The compound further showed a TD50 at 0.5 h in data set [16] of 420 mg/kg.
For the compound `CCC1(C)CC(=O)NC1=O` (stereo not given) [ETHOSUXIMIDE], the selectivity ratio in data set [11] was determined as 3.2. Moreover, the Activity result in [4] is reported as “Non-Toxic”. In the data set on Mus musculus [13], the ED50 was 106 mg/kg. Further, in data set [16], the TD50 at 0.5 h turned out to be 343 mg/kg.
As for `CCCCCSc1nnc(COc2ccc(NC(C)=O)cc2)o1`, the Activity result in data set [2] and in data set [4] was “Non-Toxic” throughout. The IC50 in data set [7] was 1290 nM. The outcome with Mus musculus [9] and with Mus musculus [14] was Active. The selectivity ratio in data set [11] amounted to 13.8; in data set [17], 17.2. Moreover, the figures for the ED50 in the data set with Mus musculus [13] and in the data set with Mus musculus [18] were 28.1 mg/kg and 22.6 mg/kg, respectively. This compound returned a TD50 at 0.5 h in data set [16] of 389 mg/kg.
Regarding `CCCCCCSc1nnc(COc2ccc3c(c2)CCC(=O)N3)o1`, the Activity entry in data set [2] and in data set [4] was “Non-Toxic” throughout. In data set [7], the IC50 was found to be 880 nM. Moreover, the result in the data set with Mus musculus [9], with Mus musculus [14] and with Mus musculus [5] was Active. For the same compound, the selectivity ratio in data set [11] was 26; in data set [17], 44.7. Also, the results for the ED50 with Mus musculus [13] and in the data set on Mus musculus [18] were 17.9 mg/kg and 10.4 mg/kg, respectively. The compound also came in with a TD50 at 0.5 h in data set [16] of 466 mg/kg.
Turning to `NC(=O)N1c2ccccc2C=Cc2ccccc21` [CARBAMAZEPINE], the selectivity ratio in data set [17] amounted to 6.4. For the same compound, the result in the data set on Mus musculus [5] was Active. For the same compound, the Activity result in data set [20] is given as “Non-Toxic”. The median effective dose (ED50) in the data set on Mus musculus [18] came to 11.8 mg/kg.
With `CC(=O)Nc1ccc(OCc2nnc(SCc3ccccc3F)o2)cc1`, the outcome in the data set with Mus musculus [1] was inactive. For the same compound, the Activity result in [2] and in [4] was “Non-Toxic” each time. Moreover, the result in the data set on Mus musculus [3] and in the data set on Mus musculus [6] was Active.
`CCCCCCSc1nnc(COc2ccc(-n3cnnc3)cc2)o1`: the Activity result in data set [2] and in data set [4] was “Non-Toxic” throughout. In data set [7], this compound displayed an IC50 of 9310 nM. The result in the data set on Mus musculus [9] and in the data set with Mus musculus [14] was Active. The figures for the selectivity ratio in data set [11] and in data set [17] were 13.5 and 14.4, respectively. Further, the median effective dose (ED50) in the data set with Mus musculus [13] is 28.4 mg/kg; in the data set on Mus musculus [18], 26.6 mg/kg. Moreover, the TD50 at 0.5 h in data set [16] came out at 385 mg/kg.

Source of the values: ChEMBL document CHEMBL4765425, “Synthesis of 1,3,4-oxadiazole derivatives with anticonvulsant activity and their binding to the GABA receptor” (Eur J Med Chem, 2020).
